Marks after values point to notes of the source that are not given here.
Assays:
[1] = system: Tyrosine hydroxylase (TH) protein expression; assay: TH protein expression by immunohistochemistry in substantia nigra of PD mice; assay type: in vivo, C57 mice; conditions: Group D, CTMB 20 mg/kg ip, after 4 weeks of administration
Experimental: The mice were randomly divided into a sham operation group (group S, given a blank emulsion with a volume equal to that of the administered group), a model group (group M, given a blank emulsion with a volume equal to that of the administered group), a CTMB group (20 mg/kg, group D), and a levodopa group (levodopa: benserazide hydrochloride=4:1, 12 mg/kg, group L), each group included 10-12 mice, and all of them were administered intraperitoneally.
After completing the evaluation of motor function after 4 weeks of drug administration, the mice were deeply anesthetized, perfused with 20 mL of saline and 20 mL of 4% paraformaldehyde via the heart, and the brains were rapidly severed and extracted from the head, which were then preserved and fixed in 4% paraformaldehyde for 72 h after removal, and then embedded with paraffin to prepare the slices with a thickness of 4 μm for subsequent pathological and histological studies.
Tyrosine hydroxylase (TH) protein expression was detected by immunohistochemistry. […]

[2] = system: mouse model of pentylenetetrazole-induced epilepsy; assay: Mouse model of pentylenetetrazole-induced epilepsy (Racine score, seizure rate, latency); assay type: in vivo, Kunming (KM) mice; conditions: for Incubation period (s), Clonic seizure / Incubation period (s), Tonic seizure: no seizure within 30 min recorded as 1800 s; for Seizure grade: pentylenetetrazole 75 mg/kg ip, Racine score within 30 min; for seizure rate, Clonic seizure / seizure rate, Tonic seizure: within 30 min
Experimental: Validation of the protective effect of CTMB in a mouse model of pentylenetetrazole-induced epilepsy. • (1) Experimental animals: specific pathogen free (SPF) adult male Kunming (KM) mice with a weight of 30-35 g. • (2) Animal grouping: the test mice were randomly divided into […], namely, saline group, low-dose CTMB group (a dose of 50 mg/kg, CTMB-L), middle-dose CTMB group (a dose of 75 mg/kg, CTMB-M), high-dose CTMB group (a dose of 100 mg/kg, CTMB-H), 10 mice in each group, and each group was administered by intraperitoneal injection. • (3) Evaluation methods and results:
After a period of drug administration, mice in each group were injected intraperitoneally with pentylenetetrazole of the epilepsy modeling drug with a dose of 75 mg/kg, and clonic seizures and tonic seizures were used as evaluation indexes. Racine scores as well as the seizure rate and latency period of clonic seizures (Racine scores of 1-3) and tonic seizures (Racine scores of 4-5) were observed and recorded for each group of mice within 30 min. Grading scale of Racine scores are as follows. Grade 0 represents normal nonepileptic activity; grade 1 represents wet-dog-like shaking or scratching; grade 2 represents head nodding or tail wagging; grade 3 represents stretching of one forelimb or clonus of one limb; grade 4 represents multiple limb clonus or tonicity; grade 5 represents falls and generalized tonic clonic seizures. If no seizure occurs in the mouse within 30 min, the latency period was recorded as 1800 s.

COc1cc(OC)c(OC)cc1C=C1CCC1 [CTMB, 1-(cyclobutylidenemethyl)-2,4,5-trimethoxybenzene]
TH-positive neurons (a percentage of TH-positive neurons to uninjured side, %) [1]: 39.9 ± 12.1^###,***^, && % | Incubation period (s), Clonic seizure ([2]; CTMB-H 100 mg/kg ip): 1549.9 ± 537.1 s | Incubation period (s), Tonic seizure ([2]; CTMB-H 100 mg/kg ip): 1800.0 ± 0.0 s | Seizure grade ([2]; CTMB-H 100 mg/kg ip): 0.2 ± 0.4 | seizure rate, Clonic seizure ([2]; CTMB-H 100 mg/kg ip): 20%*** | seizure rate, Tonic seizure ([2]; CTMB-H 100 mg/kg ip): 0%*** | Incubation period (s), Clonic seizure ([2]; CTMB-L 50 mg/kg ip): 588.9 ± 657.6 s | Incubation period (s), Tonic seizure ([2]; CTMB-L 50 mg/kg ip): 1000.8 ± 700.7 s | Seizure grade ([2]; CTMB-L 50 mg/kg ip): 4.1 ± 1.5 | seizure rate, Clonic seizure ([2]; CTMB-L 50 mg/kg ip): 90% | seizure rate, Tonic seizure ([2]; CTMB-L 50 mg/kg ip): 70% | Incubation period (s), Tonic seizure ([2]; CTMB-M 75 mg/kg ip): 1553.5 ± 400.4 s | Seizure grade ([2]; CTMB-M 75 mg/kg ip): 1.8 ± 1.3 | seizure rate, Clonic seizure ([2]; CTMB-M 75 mg/kg ip): 50%* | seizure rate, Tonic seizure ([2]; CTMB-M 75 mg/kg ip): 30%**

From patent US20250270159A1, “1-(CYCLOBUTANEMETHYLIDENE)-2, 4, 5-TRIMETHOXYBENZENE COMPOUND AND PREPARATION METHOD AND USE THEREOF” (CHENGDU XINRUI TAIKANG TECHNOLOGY CO., LTD., priority 2023, published 2025)
